Molecular target: T1, Human Cav3.1 calcium channel (Homo sapiens, UniProt O43497)
T1 construct: expressed in transfected cells; host or cells: HEK-293 natClytin/TASK1+Cav3.1 cell line
Experiment: Human Cav3.1 calcium channel patch clamp assay (SyncroPatch 384PE; single point and IC50, voltage dependent block)
Format: cell-based
Settings: HEK-293 natClytin/TASK1+Cav3.1 cell line; for % Inhibition (Single Point Data): Testing Conc 1.25, patch clamp; for IC50: voltage dependent block (VDB), read-out: Cav3.1 IC50
How it was run: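 Automated whole-cell patch clamp at room temperature, cells held at −120 mV; 100 ms step to −20 mV (resting block), then 1600 ms at −65 mV and a second −20 mV step (voltage-dependent block), every 15 s. Peak currents averaged over last 3 sweeps; % inhibition relative to nickel-sensitive current.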

T1 sequence (O43497 whole entry): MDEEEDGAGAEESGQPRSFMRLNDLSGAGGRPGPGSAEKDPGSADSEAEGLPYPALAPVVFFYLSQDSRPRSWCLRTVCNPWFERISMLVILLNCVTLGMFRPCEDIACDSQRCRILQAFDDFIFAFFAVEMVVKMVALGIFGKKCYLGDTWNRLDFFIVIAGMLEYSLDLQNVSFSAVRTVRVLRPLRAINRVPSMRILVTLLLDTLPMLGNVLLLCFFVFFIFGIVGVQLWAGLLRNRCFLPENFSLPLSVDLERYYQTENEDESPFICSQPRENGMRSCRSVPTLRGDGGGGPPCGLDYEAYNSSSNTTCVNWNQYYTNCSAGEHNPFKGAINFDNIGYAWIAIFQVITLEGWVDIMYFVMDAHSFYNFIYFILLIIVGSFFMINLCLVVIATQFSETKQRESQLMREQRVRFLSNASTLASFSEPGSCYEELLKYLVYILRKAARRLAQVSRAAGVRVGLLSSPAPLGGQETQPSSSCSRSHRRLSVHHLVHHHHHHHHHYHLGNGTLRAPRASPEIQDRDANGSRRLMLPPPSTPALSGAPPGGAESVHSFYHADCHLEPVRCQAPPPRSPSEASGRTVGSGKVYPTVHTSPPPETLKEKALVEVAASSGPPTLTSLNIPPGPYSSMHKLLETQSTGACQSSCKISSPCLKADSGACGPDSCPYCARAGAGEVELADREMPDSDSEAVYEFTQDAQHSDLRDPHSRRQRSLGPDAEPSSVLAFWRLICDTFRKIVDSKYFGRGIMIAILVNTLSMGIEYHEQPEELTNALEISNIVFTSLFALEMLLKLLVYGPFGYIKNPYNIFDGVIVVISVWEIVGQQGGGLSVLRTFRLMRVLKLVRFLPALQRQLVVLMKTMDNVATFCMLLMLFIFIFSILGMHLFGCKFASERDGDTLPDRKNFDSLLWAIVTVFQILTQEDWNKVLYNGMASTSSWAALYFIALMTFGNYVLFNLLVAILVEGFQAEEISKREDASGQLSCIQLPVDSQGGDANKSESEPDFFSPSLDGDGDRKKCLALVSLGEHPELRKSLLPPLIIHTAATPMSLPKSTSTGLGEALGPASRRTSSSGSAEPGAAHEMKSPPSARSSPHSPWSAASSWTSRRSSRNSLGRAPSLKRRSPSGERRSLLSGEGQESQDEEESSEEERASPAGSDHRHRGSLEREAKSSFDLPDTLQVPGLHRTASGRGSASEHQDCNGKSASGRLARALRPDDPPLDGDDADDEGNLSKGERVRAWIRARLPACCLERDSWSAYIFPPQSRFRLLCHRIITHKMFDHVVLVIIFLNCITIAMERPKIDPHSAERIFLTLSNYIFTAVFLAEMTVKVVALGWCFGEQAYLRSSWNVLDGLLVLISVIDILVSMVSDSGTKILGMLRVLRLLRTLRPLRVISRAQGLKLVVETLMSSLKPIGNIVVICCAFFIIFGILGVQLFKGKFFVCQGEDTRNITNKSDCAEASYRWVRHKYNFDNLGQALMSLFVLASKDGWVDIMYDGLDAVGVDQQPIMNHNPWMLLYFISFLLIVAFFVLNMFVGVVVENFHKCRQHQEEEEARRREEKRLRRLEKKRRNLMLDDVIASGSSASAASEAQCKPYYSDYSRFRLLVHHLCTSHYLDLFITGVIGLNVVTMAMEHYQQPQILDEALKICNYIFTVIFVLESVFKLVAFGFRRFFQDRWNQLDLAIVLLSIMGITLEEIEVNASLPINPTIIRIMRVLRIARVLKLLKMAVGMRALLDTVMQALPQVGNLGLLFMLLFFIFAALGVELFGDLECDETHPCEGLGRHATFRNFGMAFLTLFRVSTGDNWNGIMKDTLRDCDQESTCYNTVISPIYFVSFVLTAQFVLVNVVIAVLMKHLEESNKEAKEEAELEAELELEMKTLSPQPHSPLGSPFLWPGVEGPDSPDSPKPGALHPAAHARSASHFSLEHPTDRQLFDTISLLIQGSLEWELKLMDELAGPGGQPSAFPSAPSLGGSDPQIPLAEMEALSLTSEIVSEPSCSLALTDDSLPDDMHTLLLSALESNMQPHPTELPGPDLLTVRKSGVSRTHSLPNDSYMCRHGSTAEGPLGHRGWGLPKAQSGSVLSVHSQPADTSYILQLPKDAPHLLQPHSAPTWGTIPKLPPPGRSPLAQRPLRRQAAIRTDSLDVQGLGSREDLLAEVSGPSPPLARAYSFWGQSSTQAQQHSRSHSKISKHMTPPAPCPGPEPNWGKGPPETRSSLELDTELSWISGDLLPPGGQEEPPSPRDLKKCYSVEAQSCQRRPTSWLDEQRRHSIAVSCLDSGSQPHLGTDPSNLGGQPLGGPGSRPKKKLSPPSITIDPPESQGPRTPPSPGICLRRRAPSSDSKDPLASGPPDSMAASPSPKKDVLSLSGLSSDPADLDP

CC(C(=O)Nc1ccc(F)c(OC(F)F)c1)N1C[C@@H]2C[C@H]1CN2CC(=O)NC(C)(C)C (stereo partly drawn) [Compound 263]
% Inhibition (Single Point Data): 90.098% | IC50: 234 nM

CC(C(=O)Nc1ccc(F)c(Cl)c1)N1C[C@@H]2C[C@H]1CN2CC(=O)NC(C)(C)C (stereo partly drawn) [Compound 264]
% Inhibition (Single Point Data): 85.955% | IC50: 242 nM

CC(C(=O)Nc1cc(F)cc(OC(F)F)c1)N1C[C@@H]2C[C@H]1CN2CC(=O)NC(C)(C)C (stereo partly drawn) [Compound 265]
% Inhibition (Single Point Data): 88.764%

CC(C)(C)NC(=O)CN1C[C@H]2CC[C@@H]1CN2CC(=O)Nc1ccc(F)c(OC(F)F)c1 [Compound 266]
% Inhibition (Single Point Data): 61.569% | IC50: 803 nM

CC(C)(C)NC(=O)CN1C[C@@H]2CC[C@H]1CN2CC(=O)Nc1ccc(F)c(OC(F)F)c1 [Compound 267]
% Inhibition (Single Point Data): 73.222% | IC50: 455 nM

CC(C)(C)NC(=O)CN1C[C@H]2CC[C@@H]1CN2CC(=O)Nc1cc(F)cc(Cl)c1 [Compound 268]
% Inhibition (Single Point Data): 85.508% | IC50: 356 nM

CC(C)(C)NC(=O)CN1C[C@H]2CC[C@@H]1CN2CC(=O)Nc1ccc(F)c(Cl)c1 [Compound 269]
% Inhibition (Single Point Data): 62.186% | IC50: 888 nM

CC(C)(C)NC(=O)CN1C[C@@H]2CC[C@H]1CN2CC(=O)Nc1cc(F)cc(Cl)c1 [Compound 270]
% Inhibition (Single Point Data): 95.978%

CC(C)(C)NC(=O)CN1C[C@@H]2CC[C@H]1CN2CC(=O)Nc1ccc(F)c(Cl)c1 [Compound 271]
% Inhibition (Single Point Data): 70.509% | IC50: 581 nM

CC(C)(C)NC(=O)CN1C[C@@H]2C[C@H]1CN2CC(=O)Nc1cc(Cl)cc(Cl)c1 [Compound 272]
% Inhibition (Single Point Data): 98.544% | IC50: 71.2 nM

Cc1cc(CNC(=O)CN2CC3CC(C2)N3CC(=O)NC(C)(C)C)nn1-c1ccccc1 [Compound 273]
% Inhibition (Single Point Data): 6.1482%

Cc1cc(CNC(=O)CN2C[C@@H]3C[C@H]2CN3CC(=O)NC(C)(C)C)nn1-c1ccccc1 [Compound 274]
% Inhibition (Single Point Data): 13.426%

COc1cc(F)cc(NC(=O)CN2C[C@@H]3C[C@H]2CN3CC(=O)NC(C)(C)C)c1 [Compound 275]
% Inhibition (Single Point Data): 93.716%

Cc1cc(F)cc(NC(=O)CN2C[C@@H]3C[C@H]2CN3CC(=O)NC(C)(C)C)c1 [Compound 276]
% Inhibition (Single Point Data): 71.467% | IC50: 474 nM

O=C(CN1C[C@@H]2C[C@H]1CN2CC1(O)CCC(F)(F)CC1)NC12CC3CC(CC(C3)C1)C2 [Compound 277]
% Inhibition (Single Point Data): 56.486% | IC50: 886 nM

O=C(CN1CC2CC(C1)N2CC1(O)CCC(F)(F)CC1)NC12CC3CC(CC(C3)C1)C2 [Compound 278]
% Inhibition (Single Point Data): 45.568% | IC50: 1210 nM

O=C(CN1C[C@@H]2C[C@H]1CN2CC1(F)CCC(F)(F)CC1)NC12CC3CC(CC(C3)C1)C2 [Compound 279]
% Inhibition (Single Point Data): 79.691% | IC50: 4020 nM

O=C(CN1C[C@@H]2C[C@H]1CN2CC(=O)NC1(C(F)(F)F)CC1)NC12CC3CC(CC(C3)C1)C2 [Compound 280]
% Inhibition (Single Point Data): 61.038% | IC50: 759 nM

O=C(CN1CC2CC(C1)N2CC(=O)NC1(C(F)(F)F)CC1)NC12CC3CC(CC(C3)C1)C2 [Compound 281]
% Inhibition (Single Point Data): 54.316% | IC50: 900 nM

COc1cc(Cl)cc(NC(=O)CN2C[C@@H]3C[C@H]2CN3CC(=O)NC(C)(C)C)c1 [Compound 282]
% Inhibition (Single Point Data): 98.739% | IC50: 74.8 nM

Cc1cc(Cl)cc(NC(=O)CN2C[C@@H]3C[C@H]2CN3CC(=O)NC(C)(C)C)c1 [Compound 283]
% Inhibition (Single Point Data): 94.657% | IC50: 140 nM

COc1cc(Cl)cc(NC(=O)CN2CC3CC(C2)N3CC(=O)NC(C)(C)C)c1 [Compound 284]
% Inhibition (Single Point Data): 103.09%

CC(C)(C)NC(=O)CN1C[C@@H]2C[C@H]1CN2CC(=O)NCC12CC3CC(CC(C3)C1)C2 [Compound 285]
% Inhibition (Single Point Data): 45.897% | IC50: 1270 nM

CC(C)(C)NC(=O)CN1C2CC1CN(CC(=O)Nc1cc(Cl)cc(Cl)c1)C2 [Compound 286]
% Inhibition (Single Point Data): 89.866% | IC50: 106 nM

CC(C)(C)NC(=O)CN1C[C@@H]2C[C@H]1CN2CC(=O)NC12CCC(CC1)CC2 [Compound 287]
% Inhibition (Single Point Data): 72.068% | IC50: 682 nM

CC(C)(C)NC(=O)CN1C[C@@H]2C[C@H]1CN2CC(=O)NC12CCC(CC1)C2 [Compound 288]
% Inhibition (Single Point Data): 23.299% | IC50: 1710 nM

CC(C)(C)NC(=O)CN1C[C@@H]2C[C@H]1CN2CC(=O)NC1CCCCC1 [Compound 289]
% Inhibition (Single Point Data): 36.292% | IC50: 5020 nM

CC(C)(C)NC(=O)CN1C[C@@H]2C[C@H]1CN2C(=O)NCC12CC3CC(CC(C3)C1)C2 [Compound 290]
% Inhibition (Single Point Data): 8.7515%

O=C(CN1C[C@@H]2C[C@H]1CN2CCC1CCOCC1)NC12CC3CC(CC(C3)C1)C2 [Compound 291]
% Inhibition (Single Point Data): 18.238% | IC50: 3330 nM

O=C(CN1CC2CC(C1)N2CCC1CCOCC1)NC12CC3CC(CC(C3)C1)C2 [Compound 292]
% Inhibition (Single Point Data): 11.934% | IC50: 4770 nM

CC(C)(C)C(O)CN1C2CC1CN(CC(=O)NC13CC4CC(CC(C4)C1)C3)C2 (stereo not drawn) [Compound 293]
% Inhibition (Single Point Data): 38.151% | IC50: 1680 nM

CC(C)(C)NC(=O)CN1C[C@@H]2C[C@H]1CN2CC(=O)Nc1cc(Cl)cc(OC(F)F)c1 [Compound 294]
% Inhibition (Single Point Data): 101.56% | IC50: 58.7 nM

CC(C)(C)NC(=O)CN1C2CC1CN(C(=O)NCC13CC4CC(CC(C4)C1)C3)C2 [Compound 295]
% Inhibition (Single Point Data): 0.753%

CC(C)(C)C(O)CN1C[C@@H]2C[C@H]1CN2CC(=O)NC12CC3CC(CC(C3)C1)C2 (stereo partly drawn) [Compound 297]
% Inhibition (Single Point Data): 63.628% | IC50: 703 nM

CC1(C)CC(CN2C[C@@H]3C[C@H]2CN3CC(=O)NC23CC4CC(CC(C4)C2)C3)CCO1 (stereo partly drawn) [Compound 298]
% Inhibition (Single Point Data): 26.791% | IC50: 2080 nM

CC1(C)CC(CN2C3CC2CN(CC(=O)NC24CC5CC(CC(C5)C2)C4)C3)CCO1 (stereo not drawn) [Compound 299]
% Inhibition (Single Point Data): 43.196% | IC50: 932 nM

CC(C)(C)NC(=O)CN1C[C@@H]2C[C@H]1CN2CC(=O)NC12CC3CC(CC(F)(C3)C1)C2 [Compound 300]
% Inhibition (Single Point Data): 65.343% | IC50: 612 nM

CC(C)Cc1cc(CNC(=O)CN2CC3CC(C2)N3CC(=O)NC(C)(C)C)nn1-c1ccccc1 [Compound 301]
% Inhibition (Single Point Data): 19.445% | IC50: 3240 nM

CC(C)Cc1cc(CNC(=O)CN2C[C@@H]3C[C@H]2CN3CC(=O)NC(C)(C)C)nn1-c1ccccc1 [Compound 302]
% Inhibition (Single Point Data): 21.003% | IC50: 3320 nM

CC(C)(C)NC(=O)CN1C2CC1CN(C(=O)NC13CC4CC(CC(C4)C1)C3)C2 [Compound 303]
% Inhibition (Single Point Data): 23.993% | IC50: 8850 nM

CC(C)(C)NC(=O)CN1C[C@@H]2C[C@H]1CN2C(=O)NC12CC3CC(CC(C3)C1)C2 [Compound 304]
% Inhibition (Single Point Data): 25.21% | IC50: 4770 nM

Cc1cc(Cl)cc(NC(=O)CN2CC3CC(C2)N3CC(=O)NC(C)(C)C)c1 [Compound 305]
% Inhibition (Single Point Data): 101.69% | IC50: 199 nM

CC(C)(C)NC(=O)CN1C2CC1CN(CC(=O)NCC13CC4CC(CC(C4)C1)C3)C2 [Compound 306]
% Inhibition (Single Point Data): 34.765% | IC50: 1990 nM

CC(C)(C)NC(=O)CN1C2CC1CN(CC(=O)NC13CCC(CC1)CC3)C2 [Compound 307]
% Inhibition (Single Point Data): 41.625% | IC50: 1010 nM

CC(C)(C)NC(=O)CN1C2CC1CN(CC(=O)NC13CCC(CC1)C3)C2 [Compound 308]
% Inhibition (Single Point Data): 33.02% | IC50: 1930 nM

CC(C)(C)NC(=O)CN1C2CC1CN(CC(=O)NC1CCCCC1)C2 [Compound 309]
% Inhibition (Single Point Data): 22.713%

COc1cc(NC(=O)CN2C[C@@H]3C[C@H]2CN3CC(=O)NC(C)(C)C)ccc1F [Compound 310]
% Inhibition (Single Point Data): 84.193% | IC50: 241 nM

COc1cc(NC(=O)CN2C[C@@H]3C[C@H]2CN3CC(=O)NC2(C(F)(F)F)CC2)ccc1F [Compound 311]
% Inhibition (Single Point Data): 83.804% | IC50: 385 nM

CC(C)(C)NC(=O)CN1C[C@@H]2C[C@H]1CN2CC(=O)NC12CC3CC(CC(O)(C3)C1)C2 [Compound 312]
% Inhibition (Single Point Data): 4.6566%

CC(C)(C)NC(=O)CN1C2CC1CN(CC(=O)Nc1ccn(Cc3ccc(C#N)cn3)n1)C2 [Compound 313]
% Inhibition (Single Point Data): −11.969%

CC(C)(C)NC(=O)CN1C[C@@H]2C[C@H]1CN2CC(=O)Nc1ccn(Cc2ccc(C#N)cn2)n1 [Compound 314]
% Inhibition (Single Point Data): 5.0515%

CC(C)(C)NC(=O)CN1C2CC1CN(CC(=O)NC13CC4CC(CC(F)(C4)C1)C3)C2 [Compound 315]
% Inhibition (Single Point Data): 72.558% | IC50: 592 nM

O=C(CN1C[C@@H]2C[C@H]1CN2CC(=O)N1CCC(F)(F)CC1)NC12CC3CC(CC(C3)C1)C2 [Compound 316]
% Inhibition (Single Point Data): 70.161% | IC50: 370 nM

CC1(C)CN(C(=O)CN2C[C@@H]3C[C@H]2CN3CC(=O)NC23CC4CC(CC(C4)C2)C3)C1 [Compound 317]
% Inhibition (Single Point Data): 48.399% | IC50: 1080 nM

O=C(CN1C[C@@H]2C[C@H]1CN2CCC1CCC(F)(F)CC1)NC12CC3CC(CC(C3)C1)C2 [Compound 318]
% Inhibition (Single Point Data): 88.753% | IC50: 304 nM

O=C(CN1C[C@@H]2C[C@H]1CN2CC(=O)NC1(C(F)(F)F)COC1)NC12CC3CC(CC(C3)C1)C2 [Compound 319]
% Inhibition (Single Point Data): 23.628% | IC50: 2080 nM

COc1cc(F)cc(NC(=O)CN2C[C@@H]3C[C@H]2CN3CC(=O)NC2(C(F)(F)F)CC2)c1 [Compound 320]
% Inhibition (Single Point Data): 87.599% | IC50: 185 nM
